According to PMC6886544:
“And” between values parts separate entries of the source, which are not always exact repeats. Equal entries are not always repeated. Where two headings read alike, the source gives them in different places.

Key:
[1] = test system: HCC827 cells (EGFR-delE746_A750); assay: CellTiter-Glo viability assay, HCC827; type: cell-based; settings: Homo sapiens; HCC827, 96 hours, CellTiter-Glo; read-out: EGFR CTG EC50 HCC827;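 note: luminescence from ATP content as a measure of metabolically active cells, in RPMI with 10% FBS, compound added as serial dilutions after 24 h of preculture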
[2] = test system: H358 cells (KRAS mutant); assay: CellTiter-Glo viability assay, H358; type: cell-based; settings: Homo sapiens, NCI-H358;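 note: viable cell number estimated from ATP-dependent luminescence following exposure to serially diluted inhibitor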
Procedure: (§6) A431, HCC827, H1975, A549 and H358 cells were obtained from the American Type Culture Collection (ATCC). A431 cells were cultured in DMEM high glucose media (Life Technologies, Germany), and HCC827, H1975, A549 as well as H358 cells were cultured in RPMI media (Life Technologies, Germany), both containing L-Glutamine and were supplemented with 10% FBS (GE Healthcare, Austria) and 1% PenStrep (Life Technologies, Germany) in a humidified incubator at 37 °C and 5% CO2.
(§7) Cells were seeded at cell numbers that assure linearity and optimal signal intensity (150-300 cells/well, 25 µL) and cultured for 24 hours in serum- and antibiotics-containing media in humidified chambers at 37 °C / 5% CO2. The cells were then treated with EGFR inhibitors in serial
(§8) Afterwards viability studies were carried out using CellTiter-Glo Assay (Promega, USA) that is a homogeneous method of determining the number of viable cells in culture. It is based on quantification of ATP, indicating the presence of metabolically active cells. For these studies, CellTiter-Glo reagent was prepared according to the instructions of the kit and diluted 1:1 with the complete growth medium suitable for the corresponding cell line. Thereon, reagent and assay plates were equilibrated at room temperature for 20 min. Equal volumes of the reagent were added to the volume of culture medium present in each well (25 µL). The plates were mixed for 2 minutes on an orbital shaker to induce cell lysis. The microplates were then incubated at room temperature for 20 minutes for stabilization of the luminescent signal. Following incubation the luminescence was recorded on an EnVision microplate reader (Perkin Elmer) using 500 ms integration time. The data was then analyzed using the Quattro Research Software Suite for EC50-determination. As quality control the Z’-factor was calculated from 16 positive and negative control values. Only assay results showing a Z’-factor ≥0.5 were used for further analysis. All data points were measured in duplicates for each plate and were replicated in at least two plates.

[3] = Microsomal stability (phase I), mouse; type: in vitro ADME; settings: mouse liver microsomes, up to 60 minutes, 37 °C
Procedure: Microsomal stability (phase I) assay.
Metabolic stability under oxidative conditions was measured in liver microsomes from different
time up to 50 minutes (HLM) or 60 minutes (MLM) at 37 °C. Based on the compound half-life t1/2,
the in vitro intrinsic clearance CLint was calculated. […]

[4] = target: ErbB4 (Homo sapiens, UniProt Q15303); assay: SelectScreen kinase profiling, ErbB4; type: biochemical; settings: mean ± SD of one measurement in duplicates
Procedure: (§1) Kinase profiling of compound 17a at a concentration of 1 µM generated with the SelectScreen® Profiling Service from Life Technologies.
(§2) Figure S2. Kinase profiling of compound 17a, Illustration as waterfall plot. 9 Kinases harboring a Cysteine isostructural to Cys797 in EGFR are highlighted
(§3) Kinase % inhibition Kinase % inhibition […]
(§4) aValues are the mean ± SD of one measurement in duplicates; bKinases harboring a Cysteine isostructural to Cys797 […]
(§5) (1 picture or pasted object on this page, not shown here)

[5] = target: BLK (Homo sapiens, UniProt P51451); assay: SelectScreen kinase profiling, BLK; type: biochemical; settings: mean ± SD of one measurement in duplicates
Sequence of BLK (P51451 whole entry): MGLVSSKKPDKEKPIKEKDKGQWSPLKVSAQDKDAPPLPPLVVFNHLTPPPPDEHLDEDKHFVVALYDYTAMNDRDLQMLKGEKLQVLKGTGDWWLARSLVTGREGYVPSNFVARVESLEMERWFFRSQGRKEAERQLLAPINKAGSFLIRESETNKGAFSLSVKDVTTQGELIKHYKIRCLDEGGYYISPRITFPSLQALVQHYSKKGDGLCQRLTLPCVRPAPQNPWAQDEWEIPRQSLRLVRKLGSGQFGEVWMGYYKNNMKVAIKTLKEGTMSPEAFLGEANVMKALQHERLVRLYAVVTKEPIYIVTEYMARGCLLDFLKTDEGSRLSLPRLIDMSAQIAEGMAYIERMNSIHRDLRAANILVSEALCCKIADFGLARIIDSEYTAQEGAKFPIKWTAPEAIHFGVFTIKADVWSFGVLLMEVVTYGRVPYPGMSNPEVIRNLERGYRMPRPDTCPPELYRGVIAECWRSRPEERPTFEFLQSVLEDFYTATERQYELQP
Procedure: as §1, §2, §3, §4, §5

[6] = target: T1, EGFR-wt (Homo sapiens, UniProt P00533); assay: SelectScreen kinase profiling, EGFR-wt; type: biochemical; settings: mean ± SD of one measurement in duplicates
T1 sequence (P00533 25-1210): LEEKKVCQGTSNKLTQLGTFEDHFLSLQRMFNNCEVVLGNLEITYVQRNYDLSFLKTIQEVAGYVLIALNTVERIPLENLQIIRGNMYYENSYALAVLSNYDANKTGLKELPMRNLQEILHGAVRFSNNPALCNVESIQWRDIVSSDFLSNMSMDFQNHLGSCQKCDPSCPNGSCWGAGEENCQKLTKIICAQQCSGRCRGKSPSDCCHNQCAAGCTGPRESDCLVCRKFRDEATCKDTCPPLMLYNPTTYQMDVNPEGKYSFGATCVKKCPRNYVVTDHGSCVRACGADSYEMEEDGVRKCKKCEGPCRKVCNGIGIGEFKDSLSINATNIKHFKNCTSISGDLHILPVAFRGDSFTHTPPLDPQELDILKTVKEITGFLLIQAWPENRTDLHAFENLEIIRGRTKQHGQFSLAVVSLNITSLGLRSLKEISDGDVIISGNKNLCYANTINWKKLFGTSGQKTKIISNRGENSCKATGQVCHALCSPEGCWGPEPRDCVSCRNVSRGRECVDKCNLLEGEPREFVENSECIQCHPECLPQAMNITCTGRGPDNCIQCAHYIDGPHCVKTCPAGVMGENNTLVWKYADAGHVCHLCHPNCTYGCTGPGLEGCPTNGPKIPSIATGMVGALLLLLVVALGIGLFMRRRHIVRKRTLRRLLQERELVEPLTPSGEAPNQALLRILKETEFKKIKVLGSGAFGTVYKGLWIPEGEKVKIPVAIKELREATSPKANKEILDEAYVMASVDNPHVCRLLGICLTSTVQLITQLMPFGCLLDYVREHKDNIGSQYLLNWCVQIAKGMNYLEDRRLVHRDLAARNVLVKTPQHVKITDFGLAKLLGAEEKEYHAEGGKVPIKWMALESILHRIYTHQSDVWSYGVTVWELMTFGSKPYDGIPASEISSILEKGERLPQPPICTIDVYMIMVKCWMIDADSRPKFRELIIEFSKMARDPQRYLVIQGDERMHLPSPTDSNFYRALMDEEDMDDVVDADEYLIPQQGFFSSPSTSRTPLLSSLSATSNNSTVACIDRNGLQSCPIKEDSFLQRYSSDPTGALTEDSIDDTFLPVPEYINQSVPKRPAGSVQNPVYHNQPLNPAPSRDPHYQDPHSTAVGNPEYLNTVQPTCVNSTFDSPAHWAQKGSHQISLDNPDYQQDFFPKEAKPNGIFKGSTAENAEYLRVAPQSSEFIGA
Procedure: as §1, §2, §3, §4, §5

[7] = target: ABL1-G250E (Homo sapiens, UniProt P00519, G250E); assay: SelectScreen kinase profiling, ABL1-G250E; type: biochemical; settings: mean ± SD of one measurement in duplicates
Procedure: as §1, §2, §3, §4, §5

[8] = target: BTK (Homo sapiens, UniProt Q06187); assay: SelectScreen kinase profiling, BTK; type: biochemical; settings: mean ± SD of one measurement in duplicates
Sequence of BTK (Q06187 whole entry): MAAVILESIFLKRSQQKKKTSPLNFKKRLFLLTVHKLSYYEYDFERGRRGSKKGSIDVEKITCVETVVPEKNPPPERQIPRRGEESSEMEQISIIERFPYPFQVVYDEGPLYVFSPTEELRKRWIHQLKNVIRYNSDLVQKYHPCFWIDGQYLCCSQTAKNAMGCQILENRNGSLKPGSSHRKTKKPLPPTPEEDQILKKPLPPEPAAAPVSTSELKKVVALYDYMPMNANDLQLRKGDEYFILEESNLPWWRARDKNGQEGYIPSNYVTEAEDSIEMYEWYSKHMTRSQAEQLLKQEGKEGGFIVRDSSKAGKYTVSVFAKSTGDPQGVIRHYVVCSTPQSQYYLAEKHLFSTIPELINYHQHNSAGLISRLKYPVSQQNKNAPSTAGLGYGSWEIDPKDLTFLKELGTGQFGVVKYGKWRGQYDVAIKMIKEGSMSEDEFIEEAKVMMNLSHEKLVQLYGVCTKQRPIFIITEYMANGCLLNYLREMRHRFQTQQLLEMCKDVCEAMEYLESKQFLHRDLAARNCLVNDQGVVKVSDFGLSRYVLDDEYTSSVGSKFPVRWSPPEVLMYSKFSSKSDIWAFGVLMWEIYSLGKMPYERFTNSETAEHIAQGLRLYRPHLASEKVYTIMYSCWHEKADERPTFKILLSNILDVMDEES
Procedure: as §1, §2, §3, §4, §5

[9] = target: YES1 (Homo sapiens, UniProt P07947); assay: SelectScreen kinase profiling, YES1; type: biochemical; settings: mean ± SD of one measurement in duplicates
Procedure: as §1, §2, §3, §4, §5

[10] = target: ROS1 (Homo sapiens, UniProt P08922); assay: SelectScreen kinase profiling, ROS1; type: biochemical; settings: mean ± SD of one measurement in duplicates
Procedure: as §1, §2, §3, §4, §5

[11] = target: JAK3 (Homo sapiens, UniProt P52333); assay: SelectScreen kinase profiling, JAK3; type: biochemical; settings: mean ± SD of one measurement in duplicates
Procedure: as §1, §2, §3, §4, §5

[12] = target: BMX (Homo sapiens, UniProt P51813); assay: SelectScreen kinase profiling, BMX; type: biochemical; settings: mean ± SD of one measurement in duplicates
Procedure: as §1, §2, §3, §4, §5

[13] = target: ABL1-wt (Homo sapiens, UniProt P00519); assay: SelectScreen kinase profiling, ABL1-wt; type: biochemical; settings: mean ± SD of one measurement in duplicates
Procedure: as §1, §2, §3, §4, §5

[14] = target: SRC (Homo sapiens, UniProt P12931); assay: SelectScreen kinase profiling, SRC; type: biochemical; settings: mean ± SD of one measurement in duplicates
Procedure: as §1, §2, §3, §4, §5

[15] = target: LCK (Homo sapiens, UniProt P06239); assay: SelectScreen kinase profiling, LCK; type: biochemical; settings: mean ± SD of one measurement in duplicates
Procedure: as §1, §2, §3, §4, §5

[16] = target: EPHA1 (Homo sapiens, UniProt P21709); assay: SelectScreen kinase profiling, EPHA1; type: biochemical; settings: mean ± SD of one measurement in duplicates
Procedure: as §1, §2, §3, §4, §5

[17] = test system: A431 cells (EGFR wild type); assay: CellTiter-Glo viability assay, A431
Procedure: as §6, §7, §8

[18] = test system: A549 cells (KRAS mutant); assay: CellTiter-Glo viability assay, A549; settings: Homo sapiens
[19] = test system: H1975 cells (EGFR-L858R/T790M); assay: CellTiter-Glo viability assay, H1975; settings: Homo sapiens, NCI-H1975, 96 h, read-out: EGFR CTG EC50 H1975, H1975, 96 hours, CellTiter-Glo
Procedure: as §6, §7, §8

[20] = target: T1, EGFR-wt; assay: HTRF KinEASE-TK activity-based assay, EGFR-wt; settings: EGFR HTRF IC50 wt, ATP at Km (9.5 µM), 30 min preincubation; mean ± SD of three independent measurements in duplicates
[21] = target: EGFR-L858R (Homo sapiens, UniProt P00533, L858R); assay: HTRF KinEASE-TK activity-based assay, EGFR-L858R
Sequence of EGFR-L858R (P00533 25-1210 L858R): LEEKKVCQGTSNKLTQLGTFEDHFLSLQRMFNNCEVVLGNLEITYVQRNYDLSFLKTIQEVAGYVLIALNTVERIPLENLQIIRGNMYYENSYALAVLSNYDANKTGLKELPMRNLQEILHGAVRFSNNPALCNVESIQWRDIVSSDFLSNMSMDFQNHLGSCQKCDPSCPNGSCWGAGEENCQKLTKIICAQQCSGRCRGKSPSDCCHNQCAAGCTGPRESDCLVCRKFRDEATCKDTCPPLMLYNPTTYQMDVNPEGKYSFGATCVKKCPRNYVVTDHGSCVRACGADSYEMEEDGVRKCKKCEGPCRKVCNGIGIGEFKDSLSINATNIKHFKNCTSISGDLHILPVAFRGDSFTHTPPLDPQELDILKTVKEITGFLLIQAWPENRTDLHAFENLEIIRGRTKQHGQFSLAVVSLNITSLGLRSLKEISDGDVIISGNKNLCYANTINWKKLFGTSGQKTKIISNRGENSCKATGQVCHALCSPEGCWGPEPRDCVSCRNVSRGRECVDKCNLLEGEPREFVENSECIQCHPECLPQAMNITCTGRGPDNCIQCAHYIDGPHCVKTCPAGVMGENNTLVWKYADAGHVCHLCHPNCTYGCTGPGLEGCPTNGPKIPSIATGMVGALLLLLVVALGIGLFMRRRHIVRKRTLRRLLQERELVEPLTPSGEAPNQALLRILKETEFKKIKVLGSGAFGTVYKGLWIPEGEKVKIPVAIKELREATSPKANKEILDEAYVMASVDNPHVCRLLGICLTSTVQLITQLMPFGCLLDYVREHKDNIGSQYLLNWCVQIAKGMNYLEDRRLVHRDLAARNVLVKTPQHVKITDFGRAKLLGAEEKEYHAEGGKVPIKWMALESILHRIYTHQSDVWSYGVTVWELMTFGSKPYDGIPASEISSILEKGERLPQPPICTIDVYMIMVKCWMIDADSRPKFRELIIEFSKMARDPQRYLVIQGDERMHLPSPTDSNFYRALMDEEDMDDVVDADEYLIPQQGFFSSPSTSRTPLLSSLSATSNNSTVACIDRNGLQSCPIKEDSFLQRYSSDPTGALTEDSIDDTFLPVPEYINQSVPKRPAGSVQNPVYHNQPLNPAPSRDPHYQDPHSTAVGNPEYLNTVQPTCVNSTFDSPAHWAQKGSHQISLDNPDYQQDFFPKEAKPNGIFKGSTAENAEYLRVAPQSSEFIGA

[22] = target: EGFR-L858R/T790M (Homo sapiens, UniProt P00533, L858R/T790M); assay: HTRF KinEASE-TK activity-based assay, EGFR-L858R/T790M; settings: EGFR HTRF IC50 L858R/T790M, ATP at Km (4 µM), 30 min preincubation; mean ± SD of three independent measurements in duplicates
Sequence of EGFR-L858R/T790M (P00533 25-1210 T790M/L858R): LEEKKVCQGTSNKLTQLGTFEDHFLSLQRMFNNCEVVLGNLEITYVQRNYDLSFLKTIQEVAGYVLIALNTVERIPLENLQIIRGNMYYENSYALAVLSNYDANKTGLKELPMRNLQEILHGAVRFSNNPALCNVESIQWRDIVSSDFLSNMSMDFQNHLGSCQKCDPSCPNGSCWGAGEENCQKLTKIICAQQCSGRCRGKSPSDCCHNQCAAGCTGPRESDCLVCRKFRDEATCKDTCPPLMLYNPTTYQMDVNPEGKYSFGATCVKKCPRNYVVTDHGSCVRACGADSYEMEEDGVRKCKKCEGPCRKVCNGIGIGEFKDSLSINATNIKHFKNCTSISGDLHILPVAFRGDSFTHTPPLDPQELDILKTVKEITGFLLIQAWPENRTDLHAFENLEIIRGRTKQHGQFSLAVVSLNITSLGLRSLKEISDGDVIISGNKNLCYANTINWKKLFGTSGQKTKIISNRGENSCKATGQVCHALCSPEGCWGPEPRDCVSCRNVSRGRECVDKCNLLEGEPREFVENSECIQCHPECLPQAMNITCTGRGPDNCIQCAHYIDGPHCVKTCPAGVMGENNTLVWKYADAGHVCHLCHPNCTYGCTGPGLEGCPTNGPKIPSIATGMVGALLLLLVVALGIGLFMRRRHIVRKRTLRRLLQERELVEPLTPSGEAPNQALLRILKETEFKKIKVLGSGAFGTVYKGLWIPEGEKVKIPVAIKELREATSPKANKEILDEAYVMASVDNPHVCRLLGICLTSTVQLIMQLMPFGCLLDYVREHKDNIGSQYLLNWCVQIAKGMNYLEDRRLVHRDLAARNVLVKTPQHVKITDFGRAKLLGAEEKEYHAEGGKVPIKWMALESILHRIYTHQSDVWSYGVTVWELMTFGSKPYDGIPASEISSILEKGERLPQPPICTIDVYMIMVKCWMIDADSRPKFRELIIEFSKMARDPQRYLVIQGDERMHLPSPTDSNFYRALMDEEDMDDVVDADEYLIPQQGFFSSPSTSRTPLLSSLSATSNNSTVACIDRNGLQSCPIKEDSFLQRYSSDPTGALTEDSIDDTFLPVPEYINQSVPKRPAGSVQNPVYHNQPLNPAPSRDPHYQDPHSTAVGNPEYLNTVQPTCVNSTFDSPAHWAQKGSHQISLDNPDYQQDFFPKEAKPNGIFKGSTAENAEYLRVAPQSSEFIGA

[23] = Plasma stability, human; type: in vitro ADME; settings: 5 µM, 1 h, 37 °C
[24] = Plasma protein binding, human; type: in vitro ADME; settings: equilibrium dialysis, 37 °C
Procedure: Assessment of plasma protein binding was measured by equilibrium dialysis by incubating plasma
based determination of final compound concentrations. […]

[25] = Caco-2 assay; type: in vitro ADME; settings: human
Procedure: For Caco-2 cell assay, a 10 mM DMSO stock of the compound was diluted to a final concentration of 5 μM in HBSS buffer pH 7.4 and incubated for 2 hours at 37 °C and 5% CO2 on a monolayer of Caco-2 cells (ATCC) that had been grown on a transwell membrane (Millipore, Schwalbach, Germany) for 21 days. The compound concentration was measured in the receiver as well as the donor well. Apparent permeability (Papp) from either the apical to basolateral direction or vice versa […]
is the donor drug concentration at t = 0, and dQ/dt is the amount of drug transported within the given time period of 2 hours. […]

[26] = target: T1, EGFR-wt; assay: Kinetic characterization (Ki, kinact), EGFR-wt
[27] = H358, 96 hours, CellTiter-Glo, read-out: KRAS CTG EC50 H358
[28] = Homo sapiens, A-431, 96 h, read-out: EGFR CTG EC50 A431, A431, 96 hours, CellTiter-Glo
[29] = A549, 96 h, read-out: KRAS CTG EC50 A549

For `C=CC(=O)Nc1cccc(-c2c(-c3ccc(CN4CCN(C)CC4)cc3)[nH]c3ncnc(OC)c23)c1` [Compound 17a], the EC50 [1] was less than 14 nM, the EC50 [2, 27] was 2910 ± 1470 nM and the microsomal CLint at 3 µM [3] was 26 µL/min/mg. The inhibition at 1 µM [4] was 100 ± 1%, the inhibition at 1 µM [5] was 99 ± 1% and the inhibition at 1 µM [6] was 97 ± 2%. For the same molecule, the inhibition at 1 µM [7] was 96%, the inhibition at 1 µM [8] was 96 ± 1% and the inhibition at 1 µM [9] was 93 ± 1%. It also gave an inhibition at 1 µM [10] of 92%, an inhibition at 1 µM [11] of 91 ± 2% and an inhibition at 1 µM [12] of 89 ± 1%. It also gave an inhibition at 1 µM [13] of 89%, an inhibition at 1 µM [14] of 81 ± 1% and an inhibition at 1 µM [15] of 80%. For the same molecule, the inhibition at 1 µM [16] was 72 ± 2%, the EC50 [17, 28] was 700 nM and the EC50 ([17]; read-out: EGFR CTG EC50 A431, A431, 96 hours, CellTiter-Glo) was 768 ± 271 nM. It also gave an EC50 [18, 29] of 2500 ± 1630 nM, an EC50 [19] of 137 ± 51 nM and an IC50 [20] of 15 ± 10 nM. The IC50 [21] was 2.3 ± 0.4 nM and the IC50 [22] was 4 ± 1.7 nM.

Molecule `C=CC(=O)Nc1cccc(-c2c(-c3ccc(N4CCN(C)CC4)cc3)[nH]c3ncnc(OCC(C)C)c23)c1` [Compound 19h] has an EC50 [1] of less than 14 nM, an EC50 [2, 27] of 3690 ± 1460 nM and an EC50 ([2]; H358, rounded value in running text, read-out: EC50 H358) of 3700 nM. The microsomal CLint at 3 µM [3] was 46 µL/min/mg, the Plasma stability [23] was 99 %remain and 100 %remain and the fraction unbound at 6 h, 5 µM [24] was 0.001. The efflux ratio at 2 h, 5 µM ([25]; Caco-2, pH 7.4, efflux ratio, read-out: Caco-2: ratio (BA) : (AB)) was 3.1, the Papp A→B at 2 h, 5 μM ([25]; Caco-2, apical to basolateral, 5 μM, pH 7.4, 2 hours, read-out: Caco-2: Papp AB) was 1.2 ×10⁻⁶ cm/s and the Papp B→A at 2 h, 5 μM ([25]; Caco-2, basolateral to apical, 5 μM, pH 7.4, 2 hours, read-out: Caco-2: Papp BA) was 3.6 ×10⁻⁶ cm/s. It also gave an EC50 [17, 28] of 1680 ± 402 nM, an EC50 ([17]; Homo sapiens, A-431, read-out: EC50 A431, A431, rounded value in running text) of 1700 nM and an EC50 [18, 29] of 3650 ± 1750 nM. The EC50 ([18]; A549, read-out: EC50 A549) was 3700 nM, the EC50 [19] was 51 ± 19 nM and the IC50 [20] was 0.2 ± 0.2 nM. For the same molecule, the Ki [26] was 0.4 ± 0.1 nM, the kinact [26] was 0.000833 s⁻¹ and the kinact/KI [26] was 1.98e+06 ± 220000 M⁻¹ s⁻¹. It also gave an IC50 [21] of less than 0.1 nM and an IC50 [22] of less than 0.1 nM.
